Assay results taken from patent US20240391931A1 (Bristol-Myers Squibb Company, priority 2021, published 2024).

Legend:
HER2 WT = biological target: T1, HER2 WT (Homo sapiens, UniProt P04626); experiment: Enzymatic assay HER2 WT (method a); assay type: biochemical; conditions: [HER2 WT]=12.5 nM, [ATP]=25 μM, [Peptide 22]=1 μM
T1 construct: purchased ProQinase, Freiburg, Germany ERBB2 0108-0000-1
In short: (§1)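 Initial rates over 0–3600 s, read as substrate-to-product conversion by capillary electrophoresis, were converted to percent inhibition and fitted with a variable-slope curve to give IC50. Conditions: EGFR WT 2 nM with 1 mM ATP; HER2 YVMA 5 nM or HER2 WT 12.5 nM, each with 25 μM ATP. All used 1 μM Peptide 22 in pH 7.5 HEPES/Mn/Mg buffer.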

N87 cells = experiment: Cellular proliferation in N87 cells (CellTiter Glo); assay type: cell-based, human; conditions: 72 h
Description: (§2) In addition to the engineered cell lines, the following cell lines were used: BT474 (human breast carcinoma), N87 (human gastric carcinoma), NCI-H1781 (human lung adenocarcinoma), and A431 (human epidermoid carcinoma); all cell lines were obtained from the American Type Culture Collection (ATCC, Manassas, VA). NCI-H1781 were grown in complete RPMI 1640 (Life Technologies, Carlsbad, CA) supplemented with 15% fetal bovine serum (FBS, Life Technologies, Carlsbad, CA) and 1% Penicillin-Streptomycin (P/S, Life Technologies, Carlsbad, CA). N87 cells were grown in complete RPMI 1640 supplemented with 10% FBS and 1% P/S. BT474 and A431 cells were grown in DMEM (Life Technologies, Carlsbad, CA) supplemented with 10% FBS and 1% P/S. All cells were maintained and propagated in a humidified 5% CO2 incubator at 37° C.
(§3) Cell proliferation in adherent cells was investigated in two HER2 amplified cell lines (BT474, N87), and a HER2VC expressing cell line (NCI-H1781). BT474, NCI-H1781, and N87 were plated in their appropriate growth media supplemented with either 10% FBS (BT474, N87) or 15% FBS (NCI-H1781) and 1% P/S in 96-well white clear-bottom tissue culture plates (Costar, Sigma-Aldrich). The starting cell densities were 3500, 5500, and 5000 cells for BT474, NCI-H1781, and N87 cells, respectively. An 8-point standard curve with varying cell densities (starting at 50000 cells and serially diluting down 2-fold) was prepared for each cell line and read 6 h after plating. Cells were allowed to attach overnight prior to compound treatment. Compound solutions were prepared by serially diluting test compounds in DMSO (Sigma-Aldrich), then diluting 500× in their corresponding serum free media. Cells were treated by adding a 1:1 volume of test compound to a final concentration of […], 0.004, 0.0014, or 0.0005 μM, in 0.1% DMSO and 5% FBS (for BT474 and N87) or 7.5% FBS (NCI-H1781). In BT474 and NCI-H1781, cell media was replaced and cells were redosed with fresh test compound solutions after 72 h. Viability was determined by CellTiter Glo (Promega, Madison, WI) after 72 h for N87 cells, and after 120 h for BT474 and […] cells. The results were converted to cell numbers using a standard curve; growth inhibition (GI50 values) were determined by Graph Pad Prism. […] The results are provided in Table 4, under columns titled “BT474-GI50”, “N87-GI50”, and “NCI-H1781-GI50”.

NCI-H1781 cells = experiment: Cellular proliferation in NCI-H1781 cells (CellTiter Glo); assay type: cell-based, human; conditions: 120 h, redosed after 72 h
Description: as §2, §3

EGFR WT = biological target: T2, EGFR WT (Homo sapiens, UniProt P00533); experiment: Enzymatic assay EGFR WT (method c); assay type: biochemical; conditions: [EGFR WT]=2 nM, [ATP]=1 mM, [Peptide 22]=1 μM
T2 construct: purchased Thermo Fisher, Carlsbad, CA ERBB1 PR7295B
In short: as §1

BT474 cells = experiment: Cellular proliferation in BT474 cells (CellTiter Glo); assay type: cell-based, human; conditions: 120 h, redosed after 72 h
Description: as §2, §3

[1] = Homo sapiens, NCI-H1781, NCI-H1781 cells
[2] = Homo sapiens, BT-474, BT474 cells

T2 sequence (P00533 25-1210): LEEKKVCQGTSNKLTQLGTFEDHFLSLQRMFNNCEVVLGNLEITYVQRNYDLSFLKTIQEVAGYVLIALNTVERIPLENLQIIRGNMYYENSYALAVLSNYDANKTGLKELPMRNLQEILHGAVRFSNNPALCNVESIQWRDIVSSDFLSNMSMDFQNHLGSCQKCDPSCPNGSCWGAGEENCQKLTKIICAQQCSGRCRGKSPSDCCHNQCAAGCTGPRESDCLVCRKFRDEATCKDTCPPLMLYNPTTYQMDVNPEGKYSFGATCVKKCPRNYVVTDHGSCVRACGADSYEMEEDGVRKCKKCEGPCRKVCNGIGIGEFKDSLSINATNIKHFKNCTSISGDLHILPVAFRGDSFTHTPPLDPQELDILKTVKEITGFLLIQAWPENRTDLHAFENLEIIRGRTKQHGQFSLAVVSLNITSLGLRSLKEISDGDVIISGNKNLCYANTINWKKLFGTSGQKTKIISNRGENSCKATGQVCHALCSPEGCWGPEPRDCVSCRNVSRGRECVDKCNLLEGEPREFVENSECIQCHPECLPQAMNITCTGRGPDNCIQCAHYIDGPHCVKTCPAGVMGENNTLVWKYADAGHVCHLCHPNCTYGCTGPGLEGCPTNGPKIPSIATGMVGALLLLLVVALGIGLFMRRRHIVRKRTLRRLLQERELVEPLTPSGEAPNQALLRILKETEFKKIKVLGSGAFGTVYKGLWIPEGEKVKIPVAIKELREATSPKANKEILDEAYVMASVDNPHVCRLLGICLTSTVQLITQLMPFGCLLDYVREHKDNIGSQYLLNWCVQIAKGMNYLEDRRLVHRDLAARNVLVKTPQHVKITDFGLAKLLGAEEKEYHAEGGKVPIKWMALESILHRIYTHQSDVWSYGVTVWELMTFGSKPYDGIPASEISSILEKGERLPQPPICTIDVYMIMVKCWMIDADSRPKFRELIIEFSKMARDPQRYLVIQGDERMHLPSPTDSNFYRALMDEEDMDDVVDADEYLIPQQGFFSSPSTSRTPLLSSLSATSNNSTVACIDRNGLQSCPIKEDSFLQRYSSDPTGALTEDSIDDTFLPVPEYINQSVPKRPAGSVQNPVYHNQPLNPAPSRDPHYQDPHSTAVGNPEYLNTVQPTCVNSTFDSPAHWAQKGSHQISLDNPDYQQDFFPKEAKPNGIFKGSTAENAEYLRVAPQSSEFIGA
T1 sequence (P04626 23-1255): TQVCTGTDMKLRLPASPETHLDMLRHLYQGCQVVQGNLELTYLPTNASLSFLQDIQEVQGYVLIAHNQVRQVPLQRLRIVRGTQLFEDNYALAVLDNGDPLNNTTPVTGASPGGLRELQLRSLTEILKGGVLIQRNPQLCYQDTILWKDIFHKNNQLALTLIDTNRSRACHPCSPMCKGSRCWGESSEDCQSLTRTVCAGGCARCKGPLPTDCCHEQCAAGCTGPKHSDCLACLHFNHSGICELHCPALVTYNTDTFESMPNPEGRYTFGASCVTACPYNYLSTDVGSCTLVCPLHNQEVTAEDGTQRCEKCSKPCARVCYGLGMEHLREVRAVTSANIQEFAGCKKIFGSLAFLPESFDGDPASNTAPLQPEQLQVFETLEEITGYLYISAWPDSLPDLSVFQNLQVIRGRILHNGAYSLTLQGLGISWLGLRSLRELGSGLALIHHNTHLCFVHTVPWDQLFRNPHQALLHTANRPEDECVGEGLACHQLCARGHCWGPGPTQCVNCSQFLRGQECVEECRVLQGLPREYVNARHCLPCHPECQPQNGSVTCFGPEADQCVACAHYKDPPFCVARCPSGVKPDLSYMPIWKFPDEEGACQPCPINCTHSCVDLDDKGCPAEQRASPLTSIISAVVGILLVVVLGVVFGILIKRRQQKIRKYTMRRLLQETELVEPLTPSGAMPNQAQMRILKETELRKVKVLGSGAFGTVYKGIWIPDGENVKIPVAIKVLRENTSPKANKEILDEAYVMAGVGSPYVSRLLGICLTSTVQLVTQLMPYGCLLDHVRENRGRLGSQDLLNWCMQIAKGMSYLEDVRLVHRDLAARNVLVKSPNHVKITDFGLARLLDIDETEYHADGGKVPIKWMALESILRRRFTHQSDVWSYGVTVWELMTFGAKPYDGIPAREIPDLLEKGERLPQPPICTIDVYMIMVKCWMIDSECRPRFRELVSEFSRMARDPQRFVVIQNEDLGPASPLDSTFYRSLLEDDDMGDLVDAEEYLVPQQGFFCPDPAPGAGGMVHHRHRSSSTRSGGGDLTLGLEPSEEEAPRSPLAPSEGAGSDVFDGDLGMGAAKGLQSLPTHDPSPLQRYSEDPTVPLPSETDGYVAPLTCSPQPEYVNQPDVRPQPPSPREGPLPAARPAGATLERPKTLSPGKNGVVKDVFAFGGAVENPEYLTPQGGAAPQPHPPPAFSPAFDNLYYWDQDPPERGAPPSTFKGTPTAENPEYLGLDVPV

SMILES | IC50 (HER2 WT) [nM] | GI50 (NCI-H1781 cells; [1]) [nM] | IC50 (EGFR WT) [nM] | GI50 (BT474 cells; [2]) [nM] | GI50 (NCI-H1781 cells; NCI-H1781 cells) [nM] | GI50 (BT474 cells; BT474 cells) [nM] | GI50 (N87 cells; Homo sapiens) [nM] | GI50 (NCI-H1781 cells; Homo sapiens, NCI-H1781 cells) [nM] | GI50 (N87 cells) [nM]
Cc1ccc(Oc2ccc(Nc3ncnc4sc5c(c34)CCN(C(=O)/C=C/CN3CCOCC3)C5)cc2C)cn1 [Compound 17, (E)-1-(4-((3-Methyl-4-((6-methylpyridin-3-yl)oxy)phenyl)amino)-5,6-dihydropyrido[4′,3′:4,5]thieno[2,3-d]pyrimidin-7(8H)-yl)-4-morpholinobut-2-en-1-one] | < 100 | < 100 | > 10000 | < 100 |  |  | < 100 |  | 
COc1ccc(Oc2ccc(Nc3ncnc4sc5c(c34)C(C)CN(C(=O)C=CCN(C)C)C5)cc2C)cn1 (single isomer, unassigned) [Compound 159] | 100 to 1000 | 100 to 350 | > 10000 | < 100 |  |  | < 100 |  | 
Cc1nc2cc(Oc3ccc(Nc4ncnc5sc6c(c45)CCN(C(=O)/C=C/CN(C)C)C6)cc3C)ccn2n1 [Compound 127, (E)-4-(dimethylamino)-1-(4-((3-methyl-4-((2-methyl-[1,2,4]triazolo[1,5-a]pyridin-7-yl)oxy)phenyl)amino)-5,6-dihydropyrido[4′,3′:4,5]thieno[2,3-d]pyrimidin-7(8H)-yl)but-2-en-1-one] | 100 to 1000 |  | > 10000 | < 100 |  |  | < 100 | 100 to 350 | 
Cc1cc(Nc2ncnc3sc4c(c23)CN(C(=O)/C=C/CN(C)C)C4)ccc1Oc1ccn2ncnc2c1 [Compound 130, (E)-1-(4-((4-([1,2,4]Triazolo[1,5-a]pyridin-7-yloxy)-3-methylphenyl)amino)-5H-pyrrolo[3′,4′:4,5]thieno[2,3-d]pyrimidin-6(7H)-yl)-4-(dimethylamino)but-2-en-1-one] | < 100 | < 100 | > 10000 | < 100 |  |  | < 100 |  | 
Cc1cc(Nc2ncnc3sc4c(c23)CCN(C(=O)/C=C/CN(C)C)C4)ccc1Oc1ccc(N(C)C)nc1 [Compound 158, (E)-4-(dimethylamino)-1-(4-((4-((6-(dimethylamino)pyridin-3-yl)oxy)-3-methylphenyl)amino)-5,8-dihydropyrido[4′,3′:4,5]thieno[2,3-d]pyrimidin-7(6H)-yl)but-2-en-1-one] | < 100 |  | 1000 to 10000 | < 100 |  |  | < 100 | < 100 | 
Cc1ccc(Oc2ccc(Nc3ncnc4sc5c(c34)C(C)N(C(=O)C=CCN(C)C)C5)cc2C)cn1 (single isomer, unassigned) [Compound 147] | < 100 | < 100 | > 10000 | < 100 |  |  | < 100 |  | 
COc1ccc(Oc2ccc(Nc3ncnc4sc5c(c34)C(C)CN(C(=O)/C=C/CN(C)C)C5)cc2C)cn1 (centres unmarked) [Compound 152, (E)-4-(dimethylamino)-1-(4-((4-((6-methoxypyridin-3-yl)oxy)-3-methylphenyl)amino)-5-methyl-5,8-dihydropyrido[4′,3′:4,5]thieno[2,3-d]pyrimidin-7(6H)-yl)but-2-en-1-one] | < 100 | < 100 | > 10000 | < 100 |  |  | < 100 |  | 
Cc1ccc(Oc2ccc(Nc3ncnc4sc5c(c34)CN(C(=O)C=CCN(C)C)C5C)cc2C)cn1 (single isomer, unassigned) [Compound 170] | 1000 to 10000 |  | > 10000 |  | 350 to 1000 | 100 to 350 |  |  | 100 to 350
Cc1cc(Nc2ncnc3sc4c(c23)CCN(C(=O)/C=C/CN(C)C)C4)ccc1Oc1ccn2ccnc2c1 [Compound 126, (E)-4-(dimethylamino)-1-(4-((4-(imidazo[1,2-a]pyridin-7-yloxy)-3-methylphenyl)amino)-5,8-dihydropyrido[4′,3′:4,5]thieno[2,3-d]pyrimidin-7(6H)-yl)but-2-en-1-one] | < 100 |  | > 10000 | < 100 |  |  | < 100 | < 100 | 
Cc1ccc(Oc2ccc(Nc3ncnc4sc5c(c34)CCN(C(=O)/C=C/CN(C)C)C5)cc2C)cn1 [Compound 8, (E)-4-(Dimethylamino)-1-(4-((3-methyl-4-((6-methylpyridin-3-yl)oxy)phenyl)amino)-5,6-dihydropyrido[4′,3′:4,5]thieno[2,3-d]pyrimidin-7(8H)-yl)but-2-en-1-one] | < 100 |  | 1000 to 10000 | < 100 |  |  | < 100 | < 100 | 

Second part, led by results:

IC50 (HER2 WT) [nM] | GI50 (NCI-H1781 cells; [1]) [nM] | IC50 (EGFR WT) [nM] | GI50 (BT474 cells; [2]) [nM] | GI50 (NCI-H1781 cells; NCI-H1781 cells) [nM] | GI50 (BT474 cells; BT474 cells) [nM] | SMILES | GI50 (N87 cells; Homo sapiens) [nM] | GI50 (NCI-H1781 cells; Homo sapiens, NCI-H1781 cells) [nM] | GI50 (N87 cells) [nM]
100 to 1000 | 100 to 350 | > 10000 |  |  |  | Cc1ccc(Oc2ccc(Nc3ncnc4sc5c(c34)C(C)CN(C(=O)/C=C/CN3CCOCC3)C5)cc2C)cn1 (centres unmarked) [Compound 174, (E)-1-(5-Methyl-4-((3-methyl-4-((6-methylpyridin-3-yl)oxy)phenyl)amino)-5,6-dihydropyrido[4′,3′:4,5]thieno[2,3-d]pyrimidin-7(8H)-yl)-4-morpholinobut-2-en-1-one] | < 100 |  | 
< 100 | < 100 | > 10000 | < 100 |  |  | Cc1ccc(Oc2ccc(Nc3ncnc4sc5c(c34)CCN(C(=O)/C=C/CN3CCC(O)C(C)(C)C3)C5)cc2C)cn1 (centres unmarked) [Compound 114] | < 100 |  | 
< 100 | < 100 | > 10000 | < 100 |  |  | Cc1ccc(Oc2ccc(Nc3ncnc4sc5c(c34)CCN(C(=O)/C=C/CN3CC4CC4(CO)C3)C5)cc2C)cn1 (centres unmarked) [Compound 118] | < 100 |  | 
< 100 | < 100 | > 10000 | < 100 |  |  | Cc1ccc(Oc2ccc(Nc3ncnc4sc5c(c34)CCN(C(=O)/C=C/CN3CC[C@H](F)C3)C5)cc2C)cn1 [Compound 124] | < 100 |  | 
100 to 1000 | < 100 | > 10000 | < 100 |  |  | COc1ccc(Oc2ccc(Nc3ncnc4sc5c(c34)CN(C(=O)/C=C/CN(C)C)C5)cc2C)cn1 [Compound 128, (E)-4-(dimethylamino)-1-(4-((4-((6-methoxypyridin-3-yl)oxy)-3-methylphenyl)amino)-5,7-dihydro-6H-pyrrolo[3′,4′:4,5]thieno[2,3-d]pyrimidin-6-yl)but-2-en-1-one] | < 100 |  | 
< 100 | < 100 | > 10000 | < 100 |  |  | Cc1ccc(Oc2ccc(Nc3ncnc4sc5c(c34)CN(C(=O)/C=C/CN(C)C)CC5)cc2C)cn1 [Compound 108, (E)-4-(Dimethylamino)-1-(4-((3-methyl-4-((6-methylpyridin-3-yl)oxy)phenyl)amino)-7,8-dihydropyrido[3′,4′:4,5]thieno[2,3-d]pyrimidin-6(5H)-yl)but-2-en-1-one] | < 100 |  | 
100 to 1000 | 100 to 350 | > 10000 | < 100 |  |  | COc1ccc(Oc2ccc(Nc3ncnc4sc5c(c34)CCN(C(=O)/C=C/CN3CCOCC3)C5)cc2C)cn1 [Compound 164] | < 100 |  | 
< 100 | < 100 | > 10000 | < 100 |  |  | Cc1ccc(Oc2ccc(Nc3ncnc4sc5c(c34)CN(C(=O)/C=C/CN(C)C)C5)cc2Cl)cn1 [Compound 129, (E)-1-(4-((3-Chloro-4-((6-methylpyridin-3-yl)oxy)phenyl)amino)-5H-pyrrolo[3′,4′:4,5]thieno[2,3-d]pyrimidin-6(7H)-yl)-4-(dimethylamino)but-2-en-1-one] | < 100 |  | 
